Where two headings read alike, the source gives them in different places.
Biological target: T1, Egghead β1-4-mannosyltransferase (Drosophila melanogaster, UniProt O01346)
T1 construct: a secreted version of egghead was prepared as described for the full length construct; made in house; host or cells: baculovirus-infected Sf9 and High Five insect cells (microsomal fractions)
T1 sequence (O01346 1-457): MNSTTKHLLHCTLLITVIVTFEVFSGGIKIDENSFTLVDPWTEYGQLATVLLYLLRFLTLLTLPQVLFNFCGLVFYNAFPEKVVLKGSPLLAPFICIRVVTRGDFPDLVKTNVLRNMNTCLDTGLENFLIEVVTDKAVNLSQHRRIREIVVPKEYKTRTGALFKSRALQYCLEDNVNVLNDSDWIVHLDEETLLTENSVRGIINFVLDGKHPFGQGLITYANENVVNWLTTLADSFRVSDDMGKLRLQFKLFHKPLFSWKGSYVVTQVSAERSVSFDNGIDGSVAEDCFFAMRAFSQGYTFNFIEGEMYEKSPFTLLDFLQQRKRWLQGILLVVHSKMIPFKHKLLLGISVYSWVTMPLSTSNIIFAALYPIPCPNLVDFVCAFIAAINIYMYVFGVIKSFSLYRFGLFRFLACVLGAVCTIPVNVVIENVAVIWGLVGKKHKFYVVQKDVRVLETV
Assay: Egghead mannosyltransferase enzyme assay with soluble acceptor and donor substrates (microsomal fractions)
Format: biochemical
Conditions: for effect of divalent cation salt on enzyme activity: addition of 5 to 10 mM; for acceptor substrate activity (in words): microsomal fractions of High Five cells; for Substrate specificities of Egghead β1-4-mannosyltransferase, activity at 1 mM: acceptor substrate 1 mM; for Substrate specificities of Egghead β1-4-mannosyltransferase, activity at 1 mM / Substrate specificities of Egghead β1-4-mannosyltransferase, activity at 5 mM: microsomes of pVL-Egghead infected High Five cells, GalNAc-T4 background subtracted; for Substrate specificities of Egghead β1-4-mannosyltransferase, activity at 5 mM: acceptor substrate 5 mM; for donor substrate utilisation by egghead (in words): donor sugar nucleotides tested under similar conditions
Method: Initial assays of activity included a screen with high concentrations of monosaccharide substrates and different donor substrates.
An expression construct of the full coding region of egghead was prepared by RT-PCR using D. melanogaster mRNA and the sense primer Egh001 (5′-[…]-3′, SEQ ID NO: 4) with a BglII restriction site and the anti-sense primer Egh002 (5′-[…]-3′, SEQ ID NO: 5) with a XbaI restriction site. The resulting 1.1 Kb fragment was cloned into the BglII/XbaI sites of pVL1393 (PharMingen) and pVL1393-MYC. Furthermore an expression construct for a secreted version of egghead was prepared as described for the full length construct but using sense primer Egh003 (5′[…]-3′, SEQ ID NO: 6) with a BglII restriction site and the anti-sense primer Egh002. The resulting 1 Kb fragment was cloned into pAcGP67 Baculo-virus expression vector. Expression constructs pVL-egghead-full and pVL-egghead-Myc-full and pAcGP67-egghead-sol were co-transfected with Baculo-Gold™ DNA (Pharmingen) in Sf9 cells as described (12). Control constructs included pVL-GalNAc-T4-full (8) and pVL-brainiac-full (7). Standard enzyme assays were performed in 50 μl reaction mixtures containing 25 mM HEPES-KOH (pH 7.4), 10 mM MgCl2, 0.1% n-octylgalactoside (Sigma), and 100 μM GDP-[^14C]-Man (2,000 cpm/nmol) (Amersham), and varying concentration of acceptor substrates (purchased from Fluka, Merck, Sigma and Toronto Research Chemicals Inc; see Table I for structures). Assays with brainiac were carried out in the same reaction mixture except for addition of UDP-[^14C]GlcNAc (3,000 cpm/nmol) (Amersham) and MnCl2. Enzyme sources were microsomal fractions of baculo-virus infected Sf9 and High Five™ cells prepared essentially as described by Weis et al. (1998). Briefly, cells were lysed in lysis buffer (25 mM Tris-HCl pH 7.4, 250 mM Sucrose), after incubation 30 min on ice cells were homogenized and lysate centrifuged at 1000×G. Glycerol were added to 20% and membrane pellets were obtained by 100.000×g. Pellets were used at 10 mg/ml (Protein concentration determined by BCA, Pierce). Reaction products of soluble acceptors were quantified by chromatography on Dowex AG1-X8 (Sigma). Assays with glycosphingolipids included 5 mM 2-Acetamido-2-deoxy-D-Glucono-1,5-lactone (inhibitor of hexosaminidase activity), and products were purified on octadecyl-silica cartridges (Supelco) and analyzed by high performance thin-layer chromatography followed by autoradiography.

[1] = acceptor substrate, GDP-Man donor, read-out: apparent Km of acceptor substrate

Molecule: C[C@H](CCC(=O)NCCC[N+](C)(C)CCCS(=O)(=O)[O-])[C@H]1CC[C@H]2[C@@H]3[C@H](O)C[C@@H]4C[C@H](O)CC[C@]4(C)[C@H]3C[C@H](O)[C@]12C [CHAPS]
- effect of CHAPS on egghead activity (concentration not given, to a lesser extent than n-octylgalactoside): activated

Molecule: [Ca+2].[Cl-].[Cl-] [CaCl2]
- effect of divalent cation salt on enzyme activity: had no effect

Molecule: O=C[C@H](O)[C@@H](O)[C@H](O)[C@H](O)CO [D-Glucose]
- acceptor substrate activity (in words) (GDP-Man donor): marked increase in GDP-Man transferase activity

Molecule: C[C@@H]1O[C@H](Oc2ccc([N+](=O)[O-])cc2)[C@@H](O)[C@H](O)[C@@H]1O [Fucβ1-pNph]
- Substrate specificities of Egghead β1-4-mannosyltransferase, activity at 1 mM (GDP-Man donor): 0.0 nmol/h/mg
- Substrate specificities of Egghead β1-4-mannosyltransferase, activity at 5 mM (GDP-Man donor): 0.0 nmol/h/mg

Molecule: Nc1nc2c(ncn2[C@@H]2O[C@H](COP(=O)(O)OP(=O)(O)O[C@H]3O[C@H](CO)[C@@H](O)[C@H](O)[C@@H]3O)[C@@H](O)[C@H]2O)c(=O)[nH]1 [GDP-Man, GDP-mannose]
- Km (donor substrate, with n-octyl-β-Glc acceptor substrate, read-out: apparent Km for GDP-Man): 58 ± 6.2 µM
- donor substrate utilisation by egghead (in words): strict donor substrate specificity

Molecule: CC(=O)N[C@H]1[C@H](Oc2ccc([N+](=O)[O-])cc2)O[C@H](CO)[C@H](O)[C@@H]1O [GalNAcβ1-pNph]
- Substrate specificities of Egghead β1-4-mannosyltransferase, activity at 1 mM (GDP-Man donor): 0.0 nmol/h/mg

Molecule: Cc1cc(=O)oc2cc(O[C@@H]3O[C@H](CO)[C@H](O)[C@H](O)[C@H]3O)ccc12 [Galβ1-MeUmb]
- Substrate specificities of Egghead β1-4-mannosyltransferase, activity at 1 mM (GDP-Man donor): 0.0 nmol/h/mg

Molecule: CCCCCCCCO[C@@H]1O[C@H](CO)[C@H](O)[C@H](O)[C@H]1O [Galβ1-n-Octyl]
- Substrate specificities of Egghead β1-4-mannosyltransferase, activity at 1 mM (GDP-Man donor): 0.0 nmol/h/mg
- Substrate specificities of Egghead β1-4-mannosyltransferase, activity at 5 mM (GDP-Man donor): 0.0 nmol/h/mg

Molecule: O=[N+]([O-])c1ccc(O[C@@H]2O[C@H](CO)[C@H](O)[C@H](O)[C@H]2O)cc1 [Galβ1-pNph]
- Substrate specificities of Egghead β1-4-mannosyltransferase, activity at 1 mM (GDP-Man donor): 0.0 nmol/h/mg

Molecule: CC(=O)N[C@H]1[C@H](Oc2ccc3c(C)cc(=O)oc3c2)O[C@H](CO)[C@@H](O)[C@@H]1O [GlcNAcβ1-MeUmb]
- Substrate specificities of Egghead β1-4-mannosyltransferase, activity at 1 mM (GDP-Man donor): 0.2 nmol/h/mg
- Substrate specificities of Egghead β1-4-mannosyltransferase, activity at 5 mM (GDP-Man donor): 0.0 nmol/h/mg

Molecule: CC(=O)N[C@H]1[C@H](Oc2ccc([N+](=O)[O-])cc2)O[C@H](CO)[C@@H](O)[C@@H]1O [GlcNAcβ1-pNph]
- Substrate specificities of Egghead β1-4-mannosyltransferase, activity at 1 mM (GDP-Man donor): 0.0 nmol/h/mg

Molecule: Cc1cc(=O)oc2cc(O[C@@H]3O[C@H](CO)[C@@H](O)[C@H](O)[C@H]3O)ccc12 [Glcα1-MeUmb]
- Substrate specificities of Egghead β1-4-mannosyltransferase, activity at 1 mM (GDP-Man donor): 1.2 nmol/h/mg
- Substrate specificities of Egghead β1-4-mannosyltransferase, activity at 5 mM (GDP-Man donor): 12.9 nmol/h/mg

Molecule: CCCCCCCCO[C@H]1O[C@H](CO)[C@@H](O)[C@H](O)[C@H]1O [Glcα1-n-Octyl]
- Substrate specificities of Egghead β1-4-mannosyltransferase, activity at 1 mM (GDP-Man donor): 3.6 nmol/h/mg
- Substrate specificities of Egghead β1-4-mannosyltransferase, activity at 5 mM (GDP-Man donor): 6.5 nmol/h/mg

Molecule: Cc1cc(=O)oc2cc(O[C@@H]3O[C@H](CO)[C@@H](O)[C@H](O)[C@H]3O)ccc12 [Glcβ1-MeUmb]
- Substrate specificities of Egghead β1-4-mannosyltransferase, activity at 1 mM (GDP-Man donor): 330.0 nmol/h/mg
- Substrate specificities of Egghead β1-4-mannosyltransferase, activity at 5 mM (GDP-Man donor): 611.4 nmol/h/mg

Molecule: [2H]C([2H])([2H])C([2H])([2H])C([2H])([2H])C([2H])([2H])C([2H])([2H])C([2H])([2H])C([2H])([2H])C([2H])([2H])OC1([2H])O[C@]([2H])(C([2H])([2H])O)[C@@]([2H])(O)[C@]([2H])(O)[C@@]1([2H])O (stereo partly drawn) [Glcβ1-n-Octyl, n-octyl-β-glucoside]
- Substrate specificities of Egghead β1-4-mannosyltransferase, activity at 1 mM (GDP-Man donor): 442.8 nmol/h/mg
- Substrate specificities of Egghead β1-4-mannosyltransferase, activity at 5 mM (GDP-Man donor): 732.6 nmol/h/mg

Molecule: CCCCCCCCOC1O[C@H](CO)[C@@H](O)[C@H](O)[C@H]1O (stereo partly drawn) [Glcβ1-n-Octyl, n-octyl-β-glucoside]
- Km [1]: 670 ± 80 µM

Molecule: O=[N+]([O-])c1ccc(O[C@@H]2O[C@H](CO)[C@@H](O)[C@H](O)[C@H]2O)cc1 [Glcβ1-pNph]
- Substrate specificities of Egghead β1-4-mannosyltransferase, activity at 1 mM (GDP-Man donor): 378.6 nmol/h/mg
- Substrate specificities of Egghead β1-4-mannosyltransferase, activity at 5 mM (GDP-Man donor): 561.4 nmol/h/mg
- Km [1]: 1100 ± 300 µM

Molecule: OC[C@H]1O[C@H](OCc2ccccc2)[C@@H](O)[C@@H](O)[C@@H]1O [Manα-1-Bzl]
- Substrate specificities of Egghead β1-4-mannosyltransferase, activity at 1 mM (GDP-Man donor): 0.0 nmol/h/mg

Molecule: CC(=O)N[C@H]1C(O)O[C@H](CO)[C@@H](O[C@@H]2O[C@H](CO)[C@@H](O)[C@H](O)[C@@H]2O)[C@@H]1O (some centres unmarked) [Manβ1-4GlcNAc]
- acceptor substrate activity (in words) (GDP-Man donor): no activity
- Substrate specificities of Egghead β1-4-mannosyltransferase, activity at 1 mM (GDP-Man donor): 0.0 nmol/h/mg
- Substrate specificities of Egghead β1-4-mannosyltransferase, activity at 5 mM (GDP-Man donor): 0.0 nmol/h/mg

Molecule: CCCCCCCCO[C@@H]1O[C@H](CO)[C@@H](O[C@@H]2O[C@H](CO)[C@@H](O)[C@H](O)[C@@H]2O)[C@H](O)[C@H]1O [Manβ1-4Glcβ1-n-Octyl]
- acceptor substrate activity (in words) (GDP-Man donor): no activity
- Substrate specificities of Egghead β1-4-mannosyltransferase, activity at 1 mM (GDP-Man donor): 0.0 nmol/h/mg
- Substrate specificities of Egghead β1-4-mannosyltransferase, activity at 5 mM (GDP-Man donor): 0.0 nmol/h/mg

Molecule: Cc1cc(=O)oc2cc(O[C@@H]3O[C@H](CO)[C@@H](O)[C@H](O)[C@@H]3O)ccc12 [Manβ1-MeUmb]
- Substrate specificities of Egghead β1-4-mannosyltransferase, activity at 1 mM (GDP-Man donor): 97 nmol/h/mg
- Substrate specificities of Egghead β1-4-mannosyltransferase, activity at 5 mM (GDP-Man donor): 171.4 nmol/h/mg

Molecule: O=[N+]([O-])c1ccc(O[C@@H]2O[C@H](CO)[C@@H](O)[C@H](O)[C@@H]2O)cc1 [Manβ1-pNph]
- Substrate specificities of Egghead β1-4-mannosyltransferase, activity at 1 mM (GDP-Man donor): 98.6 nmol/h/mg
- Substrate specificities of Egghead β1-4-mannosyltransferase, activity at 5 mM (GDP-Man donor): 182.9 nmol/h/mg
- Km [1]: 2300 ± 500 µM

Molecule: [Cl-].[Cl-].[Mg+2] [MgCl2]
- effect of divalent cation salt on enzyme activity: activated

Molecule: [Cl][Mn][Cl] [MnCl2]
- effect of divalent cation salt on enzyme activity: activated

Molecule: CC(=O)N[C@H]1[C@@H](OP(=O)(O)OP(=O)(O)OC[C@H]2O[C@@H](n3ccc(=O)[nH]c3=O)[C@H](O)[C@@H]2O)O[C@H](CO)[C@H](O)[C@@H]1O [UDP-GalNAc]
- donor substrate utilisation by egghead (in words): did not utilize

Molecule: CC(=O)N[C@H]1[C@@H](OP(=O)(O)OP(=O)(O)OC[C@H]2O[C@@H](n3ccc(=O)[nH]c3=O)[C@H](O)[C@@H]2O)O[C@H](CO)[C@@H](O)[C@@H]1O [UDP-GlcNAc]
- donor substrate utilisation by egghead (in words): did not utilize

Molecule: Cc1cc(=O)oc2cc(O[C@@H]3OC[C@@H](O)[C@H](O)[C@H]3O)ccc12 [Xylβ1-MeUmb]
- Substrate specificities of Egghead β1-4-mannosyltransferase, activity at 1 mM (GDP-Man donor): 0.0 nmol/h/mg

Molecule: CCCCCCCCO[C@@H]1O[C@H](CO)[C@H](O)[C@H](O)[C@H]1O [n-octylgalactoside]
- effect of n-octylgalactoside on egghead activity (3.4 mM (0.1%), microsomal membranes): activated

Molecule: Triton X-100
- effect of detergent on egghead activity (detergent at 0.1%, microsomal membranes): inhibited

B1: egghead: GDP-D-mannose: β-D-glucose-R 4-β-D-mannosyltransferase, SEQ ID NO. 1 (protein)
chain: MNSTTKHLLHCTLLITVIVTFEVFSGGIKIDENSFTLVDPWTEYGQLATVLLYLLRFLTLLTLPQVLFNFCGLVFYNAFPEKVVLKGSPLLAPFICIRVVTRGDFPDLVKTNVLRNMNTCLDTGLENFLIEVVTDKAVNLSQHRRIREIVVPKEYKTRTGALFKSRALQYCLEDNVNVLNDSDWIVHLDEETLLTENSVRGIINFVLDGKHPFGQGLITYANENVVNWLTTLADSFRVSDDMGKLRLQFKLFHKPLFSWKGSYVVTQVSAERSVSFDNGIDGSVAEDCFFAMRAFSQGYTFNFIEGEMYEKSPFTLLDFLQQRKRWLQGILLVVHSKMIPFKHKLLLGISVYSWVTMPLSTSNIIFAALYPIPCPNLVDFVCAFIAAINIYMYVFGVIKSFSLYRFGLFRFLACVLGAVCTIPVNVVIENVAVIWGLVGKKHKFYVVQKDVRVLETV
modifications: Drosophila melanogaster
- pH optimum of egghead activity (microsomal membranes): 7-8 pH
